From patent EP1222194B1, “7-ACYLAMINO-3-HETEROARYLTHIO-3-CEPHEM CARBOXYLIC ACID ANTIBIOTICS AND PRODRUGS THEREOF” (priority 1999, dated 2001)
Converted amounts (≈) assume the structure as drawn.

What was measured:
[1] = system: S. aureus ATCC 33593 (Meth^R); test: Broth microdilution MIC (NCCLS); format: cell-based; conditions: Staphylococcus aureus, ATCC33593, Mueller-Hinton Broth, 24 h at 35 °C
Description: (§1) Compounds were evaluated for antimicrobial activity against a panel of bacterial strains using a broth microdilution assay performed as recommended by the NCCLS (1). The minimum inhibitory concentration (MIC) was defined as the lowest concentration of drug which prevented the growth of the bacteria. The following 16 organisms constituted the primary panel of evaluation:
(§2) For this primary panel, the assay was performed in Mueller-Hinton Broth (MHB) with a final bacterial inoculum of 5 x 10^5 CFU/mL (from an early-log phase culture) and a final volume of 100 µL. Control drugs, including imipenem, vancomycin, Penicillin G, dicloxacillin (vs. MSSA ATCC29213 only), and new compounds were prepared at a concentration equivalent to 2-fold the desired final concentration. Dilution of compounds were prepared directly in the plates by serial 2-fold dilution using a multichannel pipette. Positive and negative growth control were included in each plate.
(§3) The bacterial inocula were prepared as follows. For each strain one isolated colony was used to inoculate a volume of 8 mL of Mueller-Hinton broth and these cultures were incubated overnight (20h) at 35 °C in a shaking incubator. At the exception of Enterococcus strains, culture were then diluted 1:10 and allowed to grow for an additional one hour at 35 °C in a shaking incubator. The inocula were prepared by diluting the early log-phase (1h) cultures 1:1000 with fresh Mueller-Hinton broth. E. faecium and E. faecalis were prepared by diluting overnight cultures 1:333 and 1:666, respectively, with fresh Mueller-Hinton broth . A volume of 50 µL of the inocula was added to each well. […] The exact inocula were determined by applying […] of 10-fold serial dilution of the bacterial suspensions on TSA. After overnight incubation at 35 °C, colony forming units were manually counted.
(§4) Microtiter plates were incubated during 24 h at 35 °C and were read using a microtiterplate reader (Molecular Devices) at 650 nm as well as by visual observation using a microtiterplate reading mirror.

[2] = system: E. faecalis ATCC 29212; test: Broth microdilution MIC (NCCLS); format: cell-based; conditions: Enterococcus faecalis, ATCC29212, Mueller-Hinton Broth, 24 h at 35 °C
Description: as §1, §2, §3, §4

[3] = system: E. coli ATCC25992; test: Broth microdilution MIC (NCCLS); format: cell-based; conditions: Escherichia coli, Mueller-Hinton Broth, 24 h at 35 °C
Description: as §1, §2, §3, §4

[4] = system: E. faecium ATCC 35667; test: Broth microdilution MIC (NCCLS); format: cell-based; conditions: Enterococcus faecium, ATCC35667, Mueller-Hinton Broth, 24 h at 35 °C
Description: as §1, §2, §3, §4

[5] = system: P. aeruginosa ATCC 27853; test: Broth microdilution MIC (NCCLS); format: cell-based; conditions: Pseudomonas aeruginosa, ATCC27853, Mueller-Hinton Broth, 24 h at 35 °C
Description: as §1, §2, §3, §4

[6] = system: S. aureus ATCC 29213; test: Broth microdilution MIC (NCCLS); format: cell-based; conditions: Staphylococcus aureus, ATCC29213, Mueller-Hinton Broth, 24 h at 35 °C
Description: as §1, §2, §3, §4

[7] = system: E. faecium VanA (Van^R); test: Broth microdilution MIC (NCCLS); format: cell-based; conditions: Enterococcus faecium, Mueller-Hinton Broth, 24 h at 35 °C
Description: as §1, §2, §3, §4

[8] = system: E. faecalis VanB (Van^R); test: Broth microdilution MIC (NCCLS); format: cell-based; conditions: Enterococcus faecalis, Mueller-Hinton Broth, 24 h at 35 °C
Description: as §1, §2, §3, §4

[9] = system: S. haemolyticus 05 (Meth^R); test: Broth microdilution MIC (NCCLS); format: cell-based; conditions: Staphylococcus haemolyticus, Mueller-Hinton Broth, 24 h at 35 °C
Description: as §1, §2, §3, §4

[10] = system: S. aureus 76 (Meth^R)(lac^+); test: Broth microdilution MIC (NCCLS); format: cell-based; conditions: Staphylococcus aureus, Mueller-Hinton Broth, 24 h at 35 °C
Description: as §1, §2, §3, §4

[11] = system: S. aureus PC1 (Meth^S)(lac^+); test: Broth microdilution MIC (NCCLS); format: cell-based; conditions: Staphylococcus aureus; S. aureus PC1 (Meth^S)(lac^+); Mueller-Hinton Broth, 24 h at 35 °C; read-out: MIC
Description: as §1, §2, §3, §4

[12] = system: S. aureus Spain #356 (Meth^R); test: Broth microdilution MIC (NCCLS); format: cell-based; conditions: Staphylococcus aureus, Mueller-Hinton Broth, 24 h at 35 °C
Description: as §1, §2, §3, §4

[13] = system: E. faecium A491 (Amp^R); test: Broth microdilution MIC (NCCLS); format: cell-based; conditions: Enterococcus faecium, Mueller-Hinton Broth, 24 h at 35 °C
Description: as §1, §2, §3, §4

[14] = In vitro stability of compounds in rat serum; format: in vitro ADME; conditions: compared with other 7-acylamino-3-heteroarylthio-3-cephem carboxylic acids
Description: In general, compounds from the class of 7-acylamino-3-heteroarylthio-3-cephem carboxylic acids have higher chemical reactivity and lower stability towards chemical or enzymatic decomposition than most typical cephalosporins. […] Results shown in Table 2 represent percentage loss of the initial amount of cephalosporin compound upon 60 min incubation in rat serum.
Procedure for measuring degree of degradation of cephalosporin compounds in rat serum was as follows:
Fresh control rat serum (heparinized and stored frozen) is preincubated at 37 °C for 15 min in a shaking water bath. pH is measured using test strips. 25 µL of a 2 mg/mL solution cephalosporin compound (in water) of is then added to each matrix to make 1000 µL. Solutions were incubated at 37 °C. 100ul of solution was taken out at time = 0, 15, 30, and 60 min post dose and added 200 µL 4% trichloroacetic acid, vortexed, and centrifuged for 10 min at 14,000 rpm in an Eppendorfmicrocentrifuge. 25 µL of each supernatant was injected onto HPLC. Experiment was repeated using 25 µL of a 0.2 mg/mL cephalosporin compound. Degradation is measured as the percentage of HPLC peak area at time t relative to peak area at time 0.
HPLC conditions: Beckman Ultrasphere C18 column. 5u. 4.6mm x 25cm. 1 mL/min of 95% 0.1 M ammonium acetate, pH 6, 5% ACN going to 75% buffer/organic over 20min. UV monitored at 254 and 280 nm.

Q: For `NCCSCc1ccncc1SC1=C(C(=O)O)N2C(=O)[C@@H](NC(=O)/C(=N\O)c3nsc(N)n3)[C@H]2SC1` [Cmpd 4, (7R)-7-[(Z)-2-(5-amino-1,2,4-thiadiazol-3-yl)-2-(hydroxyimino)acetamido]-3-[4-(2-aminoethylthiomethyl)pyrid-3-ylthio]-3-cephem-4-carboxylic acid], which MIC [1] is on record?
A: The MIC was 8 mg/L (≈ 14.1 µM).

Q: What about the MIC [2] of the same compound?
A: The MIC was 2 mg/L (≈ 3.52 µM).

Q: What about the MIC [3] of the same compound?
A: The MIC was 4 mg/L (≈ 7.03 µM).

Q: And the MIC [4]?
A: Its MIC is 8 mg/L (≈ 14.1 µM).

Q: What about the MIC [5] of the same compound?
A: The MIC was over 32 mg/L.

Q: What about the MIC [6] of the same compound?
A: Its MIC is 0.5 mg/L (≈ 0.879 µM).

Q: What about the MIC [7] of the same compound?
A: Its MIC is 8 mg/L (≈ 14.1 µM).

Q: And the MIC [8]?
A: The MIC was 2 mg/L (≈ 3.52 µM).

Q: And the MIC [9]?
A: Its MIC is 16 mg/L (≈ 28.1 µM).

Q: What about the MIC [10] of the same compound?
A: The MIC was 8 mg/L (≈ 14.1 µM).

Q: What about the MIC [11] of the same compound?
A: The MIC was 0.5 mg/L (≈ 0.879 µM).

Q: And the MIC [12]?
A: The MIC was 16 mg/L (≈ 28.1 µM).

Q: And the MIC [13]?
A: The MIC was over 32 mg/L.

Q: And the “stability in rat serum (statement in words)” value [14]?
A: Its value is “improved stability”.
